Measured values from publication PMC10708954, “Exploring the Effect of Compound Glycyrrhizin and Silybinin on the Metabolism of Pexidartinib in Rats Based on CYP3A4 and CYP2C9” (Advances in Pharmacological and Pharmaceutical Sciences, 2023).
Where two headings read alike, the source gives them in different places.

Tests used:
CYP3A4 = assay: Western blot of CYP3A4 protein expression in rat liver
Description: (§1) The rats in all five groups were gavaged once a day for fourteen consecutive days. Groups E and G were gavaged with 150 mg/kg aqueous solution of silybinin (containing 21 mg/kg silybinin), groups F and H were gavaged with 13.5 mg/kg aqueous solution of compound glycyrrhizin (containing 4.5 mg/kg glycyrrhizin), and from the 15-days onwards, groups G and H were given 40 mg/kg of PXD per day for a total of 7-days, and equal amounts of saline were given to groups E and F. Group D was gavaged with equal amounts of saline until the end of the experiment. After gavage for 21 days, rats in each group were anesthetized with 10% urethane, and their fresh livers were snap-frozen in liquid nitrogen and stored at −80°C for subsequent experiments.
(§2) Fresh livers were removed at −80°C and weighed portions were homogenized in ep tubes with lysis buffer containing 0.1% PMSF. We prepared 12% SDS-PAGE routine gel, then each group took the corresponding protein samples and prestained Marker samples, 80 V constant voltage for 90 min, the voltage was adjusted to 120 V, and electrophoresis was continued for 30 min. […] Imaging was performed using Imgage-ProPlus 6.0 software and quantitative analysis was performed using Image J software.

CYP2C9 = assay: Western blot of CYP2C9 protein expression in rat liver
Description: as §1, §2

[1] = Pharmacokinetics of PXD in rat plasma (HPLC-UV) after 14 days pretreatment with saline, silybinin or CG; assay type: in vivo, rats; conditions: for Cmax / Tmax / half-life / CL/F / Vd/F: rat, plasma, rats, n = 6, mean ± SD; for CL/F: read-out: CLz/F (converted); for Vd/F: read-out: Vz/F
Description: Group B was gavaged with silybinin aqueous solution 150 mg/kg (containing silybinin 21 mg/kg), group C was gavaged with compound glycyrrhizin aqueous solution 13.5 mg/kg (containing glycyrrhizin 4.5 mg/kg), and in contrast, group A was gavaged with an equal amount of saline. After 14-days of administration, three groups were given 40 mg/kg PXD. 0.5 mL of blood was taken from the caudal vein at 0.25, 0.50, 1.00, 2.00, 3.00, 4.00, 6.00, 8.00, 12.00, 24.00, and 48.00 h after being gavaged and added to EP tubes containing heparin, followed by centrifugation at 3500 rpm for 15 min, and finally the supernatant was stored at −20°C and stored for measurement.
The apparatus used in the chromatographic analysis of this work was an 1100 series high-performance liquid chromatography (product of Agilent, USA), which mainly included a vacuum degasser, a four-component infusion pump, an automatic sampler, a column temperature box, and a DAD detector. The fundamental steps were as follows. First of all, the chromatographic separation was carried out on a Venusil C18 column (4.6 mm × 250 mm, 5 μm). Subsequently, the analytes were thoroughly separated under the mobile phase water, acetonitrile, and 0.2% TFA (37 : 43 : 20).
After preparatory 2 ml EP tubes, 300 μL of plasma samples and 15 μL of 10 ng/ml of alpelisib working solution were pipetted separately, followed by 300 μL of 10% sodium carbonate solution, mixed well, and then 1.0 ml of ethyl acetate was included to sediment the proteins. The mixture was vortexed for 2.0 min and subsequently centrifuged at 3500 rpm for 20 min at 4°C. At last, 900 μL of the upper organic phase was transferred to a fresh EP tube, blown dry with an air stream at 50°C, and then redissolved with 100 μL of mobile phase, and 20 μL was sampled for the assay.
In the current study, the drug concentration of PXD in rat plasma was plotted versus the time curve as well as all the bar graphs using GraphPad Prism 8.0 software. Then, DAS (Drug And Statistics) 2.0 software (Shanghai University of Traditional Chinese Medicine, China) was employed to get the main pharmacokinetic parameters of the analytes in nonatrial mode. Then, a one-way analysis of variance (ANOVA) was performed using SPSS (statistical product and service solutions) 25.0 software, while finally, an independent samples t-test was applied to the comparison of major pharmacokinetic parameters between the two groups, where Tmax was tested using rank sum test. Statistical significance was indicated by P < 0.05.

[2] = group B (silybinin pretreatment) compared to group A, P < 0.01
[3] = group B (silybinin pretreatment) compared to group A, P < 0.05
[4] = group C (CG pretreatment) compared to group A, P < 0.05
[5] = po, 40 mg/kg, Group A (control: saline 14 days, then single oral 40 mg/kg PXD)
[6] = po, 40 mg/kg, Group B (silybinin aqueous solution 150 mg/kg, containing silybinin 21 mg/kg, 14 days, then single oral 40 mg/kg PXD)
[7] = Group C (compound glycyrrhizin aqueous solution 13.5 mg/kg, containing glycyrrhizin 4.5 mg/kg, 14 days, then single oral 40 mg/kg PXD)

**Q.** Which results are given for `COc1cc(C2Oc3cc([C@H]4Oc5cc(O)cc(O)c5C(=O)[C@@H]4O)ccc3OC2CO)ccc1O` (stereo partly drawn) [silybinin, Silybinin]?
**A.** protein expression level of CYP3A4 (CYP3A4; gavage 21 days, compared with the control group, P < 0.05 and P < 0.01): decreased; protein expression level of CYP2C9 (CYP2C9; rat liver, gavage 21 days, compared with the control group, P < 0.05 and P < 0.01): decreased

**Q.** Which “effect of PXD on the protein expression of CYP3A4” value (CYP3A4; 40 mg/kg PXD per day for 7 days after silybinin or CG) does the source give for `FC(F)(F)c1ccc(CNc2ccc(Cc3c[nH]c4ncc(Cl)cc34)cn2)cn1` [PXD, Pexidartinib] here?
**A.** inducing effect

**Q.** What about the “effect of PXD on the protein expression of CYP2C9” value (CYP2C9; rat, in vivo, 40 mg/kg) of the same compound?
**A.** inducing effect

**Q.** And the “decrease of Vz/F” value [1, 2]?
**A.** 31.78%

**Q.** What about the “increase of AUC0⟶t” value [1, 2] of the same compound?
**A.** 28.97%

**Q.** What about the “increase of AUC0⟶∞” value [1, 2] of the same compound?
**A.** 26.74%

**Q.** And the “decrease of CLz/F” value [1, 3]?
**A.** 20.69%

**Q.** What about the “increase of Cmax” value [1, 3] of the same compound?
**A.** 20.72%

**Q.** And the “increase of Cmax” value ([1]; group C (CG pretreatment) compared to group A, P < 0.01)?
**A.** 36.25%

**Q.** What about the “increase of AUC0⟶t” value [1, 4] of the same compound?
**A.** 20.98%

**Q.** And the “increase of AUC0⟶∞” value [1, 4]?
**A.** 21.22%

**Q.** And the Cmax [1, 5]?
**A.** 10800 ± 1140 ng/mL

**Q.** And the Tmax [1, 5]?
**A.** 4.33 ± 1.37 h

**Q.** And the half-life [1, 5]?
**A.** 9.83 ± 3.13 h

**Q.** And the CL/F [1, 5]?
**A.** 4.83 mL/min/kg

**Q.** And the Vd/F [1, 5]?
**A.** 4.09 ± 1.16 L/kg

**Q.** And the Cmax [1, 6]?
**A.** 13000 ± 1160 ng/mL

**Q.** What about the Tmax [1, 6] of the same compound?
**A.** 4.17 ± 0.98 h

**Q.** What about the half-life [1, 6] of the same compound?
**A.** 8.49 ± 3.3 h

**Q.** What about the CL/F [1, 6] of the same compound?
**A.** 3.83 mL/min/kg

**Q.** And the Vd/F [1, 6]?
**A.** 2.79 ± 1.03 L/kg

**Q.** What about the Cmax [1, 7] of the same compound?
**A.** 14700 ± 2390 ng/mL

**Q.** And the Tmax [1, 7]?
**A.** 4.1 ± 1.1 h

**Q.** And the half-life [1, 7]?
**A.** 5.23 ± 1.13 h

**Q.** And the CL/F [1, 7]?
**A.** 4.17 mL/min/kg

**Q.** What about the Vd/F [1, 7] of the same compound?
**A.** 1.81 ± 0.3 L/kg
